In PubChem BioAssay AID1259411 (Chemical Carcinogenesis Research Information System (CCRIS), 2018):
Calls of active or inactive are those of the source. The rule behind the calls is not given here.

System: rodent carcinogenicity bioassays, tumor incidence
Assay: CCRIS carcinogenicity studies
Conditions: Dose: 0
Method in brief: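 NCI-built, expert-reviewed records of carcinogenicity and related test outcomes (mutagenicity, tumor promotion/inhibition) compiled from published and report sources, historical span 1985-2011, not updated.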

How did the carcinogen call (Species: MOUSE, Strain/Sex: ICR/FEMALE, Route: INTRAPERITONEAL, 8 NMOL IN 5 µL DMSO ON D 1, 16 NMOL IN 10 µL ON D 8 AND 32 NMOL IN 20 µL ON D 15 OF LIFE (STUDY DURATION: 35 WK)) turn out when `O[C@@H]1[C@@H]2O[C@@H]2c2c(ccc3c2ccc2ccccc23)[C@H]1O` was run?
The carcinogen call was “inactive; negative”.

What about the carcinogen call (Species: MOUSE, Strain/Sex: ICR/FEMALE, Route: INTRAPERITONEAL, 500 NMOL (TOTAL DOSE) ADMINISTERED IN DOSES OF 1/7, 2/7, AND 4/7 ON DAYS 1, 7, AND 15 OF LIFE, RESPECTIVELY (STUDY DU, Tumor Site: Type of Lesion: LUNG: TUMOR) of the same molecule?
Its carcinogen call is “active; positive”.

What about the carcinogen call (Species: MOUSE, Strain/Sex: ICR/MALE, Route: INTRAPERITONEAL, 8 NMOL IN 5 µL DMSO ON D 1, 16 NMOL IN 10 µL ON D 8 AND 32 NMOL IN 20 µL ON D 15 OF LIFE (STUDY DURATION: 35 WK)) of the same molecule?
Its carcinogen call is “inactive; negative”.

What about the carcinogen call (Species: MOUSE, Strain/Sex: ICR/MALE, Route: INTRAPERITONEAL, 500 NMOL (TOTAL DOSE) ADMINISTERED IN DOSES OF 1/7, 2/7, AND 4/7 ON DAYS 1, 7 AND 15 OF LIFE , RESPECTIVELY (STUDY DU, Tumor Site: Type of Lesion: LUNG: TUMOR) of the same molecule?
The carcinogen call was “active; positive”.

Which carcinogen call (Species: MOUSE, Strain/Sex: B6C3F1/FEMALE, Route: GAVAGE, 1500, 3000 MG/KG IN CORN OIL 5 D/WK FOR 103-104 WK (STUDY DURATION: 106 WK), 1500, 3000 MG/KG IN CORN OIL 5 D/WK FOR 103-104 WK (STUDY DURATION: 106 WK)) does the source give for `CC1(C)S[C@@H]2[C@H](NC(=O)[C@H](N)c3ccccc3)C(=O)N2[C@H]1C(=O)O` here?
Its carcinogen call is “inactive; negative”.

And the carcinogen call (Species: MOUSE, Strain/Sex: B6C3F1/FEMALE, Route: GAVAGE, 1500, 3000 MG/KG IN CORN OIL 5 D/WK FOR 103 WK, 1500, 3000 MG/KG IN CORN OIL 5 D/WK FOR 103 WK)?
Its carcinogen call is “inactive; negative”.

And the carcinogen call (Species: MOUSE, Strain/Sex: B6C3F1/MALE, Route: GAVAGE, 1500, 3000 MG/KG IN CORN OIL 5 D/WK FOR 103-104 WK (STUDY DURATION: 106 WK), 1500, 3000 MG/KG IN CORN OIL 5 D/WK FOR 103-104 WK (STUDY DURATION: 106 WK))?
Its carcinogen call is “inactive; negative”.

What about the carcinogen call (Species: MOUSE, Strain/Sex: B6C3F1/MALE, Route: GAVAGE, 1500, 3000 MG/KG IN CORN OIL 5 D/WK FOR 103 WK, 1500, 3000 MG/KG IN CORN OIL 5 D/WK FOR 103 WK) of the same molecule?
The carcinogen call was “inactive; negative”.

And the carcinogen call (Species: RAT, Strain/Sex: F344/FEMALE, Route: GAVAGE, 750, 1500 MG/KG IN CORN OIL 5 D/WK FOR 103-104 WK (STUDY DURATION: 106 WK), 750, 1500 MG/KG IN CORN OIL 5 D/WK FOR 103-104 WK (STUDY DURATION: 106 WK))?
Its carcinogen call is “inactive; negative”.

What about the carcinogen call (Species: RAT, Strain/Sex: F344/FEMALE, Route: GAVAGE, 750, 1500 MG/KG IN CORN OIL 5 D/WK FOR 103 WK, 750, 1500 MG/KG IN CORN OIL 5 D/WK FOR 103 WK) of the same molecule?
Its carcinogen call is “inactive; negative”.

What about the carcinogen call (Species: RAT, Strain/Sex: F344/MALE, Route: GAVAGE, 750, 1500 MG/KG IN CORN OIL 5 D/WK FOR 103 WK (STUDY DURATION: 105 WK), 750, 1500 MG/KG IN CORN OIL 5 D/WK FOR 103 WK (STUDY DURATION: 105 WK), Tumor Site: Type of Lesion: ADRENAL MEDULLA: PHEOCHROMOCYTOMAS, HEMATOPOIETIC SYSTEM: MONONUCLEAR CELL LEUKEMIA) of the same molecule?
Its carcinogen call is “equivocal”.

`CCC1=C(C)CN(C(=O)NCCc2ccc(S(=O)(=O)NC(=O)NC3CCC(C)CC3)cc2)C1=O` (stereo unspecified) was tested. Which carcinogen call (Species: DOG, Strain/Sex: BEAGLE/FEMALE, Route: ORAL, 0.8, 16, 320 MG/KG BW IN GELATIN CAPSULE 1/D 7 D/WK FOR 12 MO (STUDY DURATION: 15 MO), 0.8, 16, 320 MG/KG BW IN GELATIN CAPSULE 1/D 7 D/WK FOR 12 MO (STUDY DURATION: 15 MO)) did it give?
Its carcinogen call is “inactive; negative”.

And the carcinogen call (Species: DOG, Strain/Sex: BEAGLE/MALE, Route: ORAL, 0.8, 16, 320 MG/KG BW IN GELATIN CAPSULE 1/D 7 D/WK FOR 12 MO (STUDY DURATION: 13 MO), 0.8, 16, 320 MG/KG BW IN GELATIN CAPSULE 1/D 7 D/WK FOR 12 MO (STUDY DURATION: 13 MO))?
The carcinogen call was “inactive; negative”.

And the carcinogen call (Species: RAT, Strain/Sex: WISTAR/FEMALE, Route: ORAL, 20, 1000, 50000 PPM IN DIET FOR 12 MO (STUDY DURATION: 13 MO), 20, 1000, 50000 PPM IN DIET FOR 12 MO (STUDY DURATION: 13 MO))?
Its carcinogen call is “inactive; negative”.

What about the carcinogen call (Species: RAT, Strain/Sex: WISTAR/MALE, Route: ORAL, 20, 1000, 50000 PPM IN DIET FOR 12 MO (STUDY DURATION: 13 MO), 20, 1000, 50000 PPM IN DIET FOR 12 MO (STUDY DURATION: 13 MO)) of the same molecule?
The carcinogen call was “inactive; negative”.

What does the source list for `CC(C)NCCCC1(C(N)=O)c2ccccc2-c2ccccc21`?
carcinogen call (Species: MOUSE, Strain/Sex: B6C3F1/FEMALE, Route: ORAL, 0.02, 0.04, 0.08% IN DIET FOR APPROXIMATE DAILY DOSES OF 0, 27, 53, 113 MG/KG (STUDY DURATION: 2 YR), 0.02, 0.04, 0.08% IN DIET FOR APPROXIMATE DAILY DOSES OF 0, 27, 53, 113 MG/KG (STUDY DURATION: 2 YR)): inactive; negative; carcinogen call (Species: MOUSE, Strain/Sex: B6C3F1/MALE, Route: ORAL, 0.02, 0.04, 0.08% IN DIET FOR APPROXIMATE DAILY DOSES OF 0, 27, 53, 113 MG/KG (STUDY DURATION: 2 YR), 0.02, 0.04, 0.08% IN DIET FOR APPROXIMATE DAILY DOSES OF 0, 27, 53, 113 MG/KG (STUDY DURATION: 2 YR)): inactive; negative; carcinogen call (Species: RAT, Strain/Sex: F344/FEMALE, Route: ORAL, 0.02, 0.04, 0.08% IN DIET FOR APPROXIMATE DAILY DOSES OF 0, 9, 18, 37 MG/KG (STUDY DURATION: 2 YR), 0.02, 0.04, 0.08% IN DIET FOR APPROXIMATE DAILY DOSES OF 0, 9, 18, 37 MG/KG (STUDY DURATION: 2 YR)): inactive; negative; carcinogen call (Species: RAT, Strain/Sex: F344/MALE, Route: ORAL, 0.02, 0.04, 0.08% IN DIET FOR APPROXIMATE DAILY DOSES OF 0, 9, 18, 37 MG/KG (STUDY DURATION: 2 YR), 0.02, 0.04, 0.08% IN DIET FOR APPROXIMATE DAILY DOSES OF 0, 9, 18, 37 MG/KG (STUDY DURATION: 2 YR)): inactive; negative

With `O=[N+]([O-])c1ccc(-c2cscn2)o1` as the molecule, how does the carcinogen call (Species: RAT, Strain/Sex: SPRAGUE-DAWLEY/FEMALE, Route: ORAL, 1540 PPM IN DIET FOR 46 WK (TOTAL DOSE: 42 MMOL/RAT) (STUDY DURATION: 68 WK), Tumor Site: Type of Lesion: MAMMARY GLAND: FIBROADENOMA, FORESTOMACH: SQUAMOUS CELL CARCINOMA) read?
The carcinogen call was “active; positive”.

Which carcinogen call (Species: MOUSE, Strain/Sex: SWISS/FEMALE, Route: ORAL, 156, 312 PPM IN DRINKING WATER DAILY FOR LIFE (STUDY DURATION: 130-140 WK), 156, 312 PPM IN DRINKING WATER DAILY FOR LIFE (STUDY DURATION: 130-140 WK)) does the source give for `NNC(N)=S` here?
Its carcinogen call is “inactive; negative”.

What about the carcinogen call (Species: MOUSE, Strain/Sex: SWISS/MALE, Route: ORAL, 156, 312 PPM IN DRINKING WATER DAILY FOR LIFE (STUDY DURATION: 130-140 WK), 156, 312 PPM IN DRINKING WATER DAILY FOR LIFE (STUDY DURATION: 130-140 WK)) of the same molecule?
The carcinogen call was “inactive; negative”.

Which results are given for `N#Cc1nn(-c2c(Cl)cc(C(F)(F)F)cc2Cl)c(N)c1S(=O)C(F)(F)F` (stereo unspecified)?
carcinogen call (Species: Mouse, Strain/Sex: CD-1/Female (32/Group), Route: Oral, 0.1, 0.5, 10, 30 ppm of 95.4% fipronil in diet for 78 wks, study duration 78 wks, 0.1, 0.5, 10, 30 ppm of 95.4% fipronil in diet for 78 wks, study duration 78 wks): inactive; negative; carcinogen call (Species: Mouse, Strain/Sex: CD-1/Male (32/Group), Route: Oral, 0.1, 0.5, 10, 30 ppm of 95.4% fipronil in diet for 78 wks, study duration 78 wks, 0.1, 0.5, 10, 30 ppm of 95.4% fipronil in diet for 78 wks, study duration 78 wks, Tumor Site: Type of Lesion: Liver: malignant hepatocellular tumors at highest dose): active; positive; carcinogen call (Species: Rat, Strain/Sex: CD/Female (50/Group), Route: Oral, 0.5, 1.5, 30, 300 ppm of 95.4% fipronil in diet for 89-91 wks, study duration 104 wks, 0.5, 1.5, 30, 300 ppm of 95.4% fipronil in diet for 89-91 wks, study duration 104 wks, Tumor Site: Type of Lesion: Thyroid: follicular cell adenoma and carcinoma at highest dose): active; positive; carcinogen call (Species: Rat, Strain/Sex: CD/Male (50/Group), Route: Oral, 0.5, 1.5, 30, 300 ppm of 95.4% fipronil in diet for 89-91 wks, study duration 104 wks, 0.5, 1.5, 30, 300 ppm of 95.4% fipronil in diet for 89-91 wks, study duration 104 wks, Tumor Site: Type of Lesion: Thyroid: follicular cell adenoma and carcinoma at highest dose): active; positive
